Measurements reported in patent US20230085307A1, “PYRIDAZINONE COMPOUND AND HERBICIDE” (NISSAN CHEMICAL CORPORATION, priority 2019, published 2023).

Experiments:
lambsquarters [1] = test: Test Example 5: herbicidal effect by foliage application, plastic box (Table 20, symbol O); assay type: in vivo, lambsquarters (Chenopodium album); details: foliage application, AAH 320 g/ha, three weeks after application
How it was run: (§1)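 Plants were sown into sterilized diluvial soil under about 1.5 cm cover and kept in a greenhouse at 25° C. to 30° C. Fourteen days on, foliage received an even spray of the diluted emulsion. Herbicidal or crop effect was judged three weeks afterwards.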

barnyard grass [2] = test: Test Example 3: herbicidal effect by foliage application, Wagner pot (Table 18, symbol H); assay type: in vivo, barnyard grass (Echinochloa crus-galli); details: 320 g/ha
How it was run: (§2)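 Plants were sown in alluvial soil held under 0.1–0.5 cm standing water and grown 14 days in a greenhouse at 25–30 °C. An emulsifiable formulation, water-diluted to the set dose, was then sprayed onto the foliage, and effects were scored three weeks later using previously defined criteria.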

persian speedwell [3] = test: Test Example 4: herbicidal effect by soil treatment (Table 19, symbol R); assay type: in vivo, Persian speedwell (Veronica persica); details: AAH 320 g/ha
How it was run: (§3)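 In this soil treatment, the formulated compound reached the seeds only through the soil: seeds were buried about 1.5 cm deep in sterilized diluvial soil, then the diluted emulsion was sprayed over the surface. After three weeks at 25° C. to 30° C. in a greenhouse, effects were graded on criteria from an earlier test.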

wild oat [4] = test: Test Example 4: herbicidal effect by soil treatment (Table 19, symbol I); assay type: in vivo, wild oat (Avena fatua); details: AAH 320 g/ha
How it was run: as §3

green foxtail [5] = test: Test Example 4: herbicidal effect by soil treatment (Table 19, symbol G); assay type: in vivo, green foxtail (Setaria viridis); details: AAH 320 g/ha
How it was run: as §3

blackgrass [6] = test: Test Example 5: herbicidal effect by foliage application, plastic box (Table 20, symbol J); assay type: in vivo, blackgrass (Alopecurus myosuroides); details: foliage application, AAH 320 g/ha, three weeks after application
How it was run: as §1

redroot pigweed [7] = test: Test Example 5: herbicidal effect by foliage application, plastic box (Table 20, symbol N); assay type: in vivo, redroot pigweed (Amaranthus retroflexus); details: foliage application, AAH 320 g/ha, three weeks after application
How it was run: as §1

Chinese sprangletop = test: Test Example 3: herbicidal effect by foliage application, Wagner pot (Table 18, symbol D); assay type: in vivo, chinese sprangletop (Leptochloa chinensis); details: 320 g/ha
How it was run: as §2

rice flat sedge = test: Test Example 3: herbicidal effect by foliage application, Wagner pot (Table 18, symbol E); assay type: in vivo, rice flat sedge (Cyperus iria); details: 320 g/ha
How it was run: as §2

redroot pigweed [8] = test: Test Example 4: herbicidal effect by soil treatment (Table 19, symbol N); assay type: in vivo, redroot pigweed (Amaranthus retroflexus); details: AAH 320 g/ha
How it was run: as §3

lambsquarters [9] = test: Test Example 4: herbicidal effect by soil treatment (Table 19, symbol O); assay type: in vivo, lambsquarters (Chenopodium album); details: AAH 320 g/ha
How it was run: as §3

southern crabgrass [10] = test: Test Example 5: herbicidal effect by foliage application, plastic box (Table 20, symbol F); assay type: in vivo, southern crabgrass (Digitaria ciliaris); details: foliage application, AAH 320 g/ha, three weeks after application
How it was run: as §1

windgrass [11] = test: Test Example 5: herbicidal effect by foliage application, plastic box (Table 20, symbol L); assay type: in vivo, windgrass (Apera spica-venti); details: foliage application, AAH 320 g/ha, three weeks after application
How it was run: as §1

barnyard grass [12] = test: Test Example 5: herbicidal effect by foliage application, plastic box (Table 20, symbol H); assay type: in vivo, barnyard grass (Echinochloa crus-galli); details: foliage application, AAH 320 g/ha, three weeks after application
How it was run: as §1

blackgrass [13] = test: Test Example 4: herbicidal effect by soil treatment (Table 19, symbol J); assay type: in vivo, blackgrass (Alopecurus myosuroides); details: AAH 320 g/ha
How it was run: as §3

wild oat [14] = test: Test Example 5: herbicidal effect by foliage application, plastic box (Table 20, symbol I); assay type: in vivo, wild oat (Avena fatua); details: foliage application, AAH 320 g/ha, three weeks after application
How it was run: as §1

velvetleaf [15] = test: Test Example 4: herbicidal effect by soil treatment (Table 19, symbol M); assay type: in vivo, velvetleaf (Abutilon theophrasti); details: AAH 320 g/ha
How it was run: as §3

Italian ryegrass [16] = test: Test Example 5: herbicidal effect by foliage application, plastic box (Table 20, symbol K); assay type: in vivo, Italian ryegrass (Lolium multiflorum); details: foliage application, AAH 320 g/ha, three weeks after application
How it was run: as §1

velvetleaf [17] = test: Test Example 5: herbicidal effect by foliage application, plastic box (Table 20, symbol M); assay type: in vivo, velvetleaf (Abutilon theophrasti); details: foliage application, AAH 320 g/ha, three weeks after application
How it was run: as §1

southern crabgrass [18] = test: Test Example 4: herbicidal effect by soil treatment (Table 19, symbol F); assay type: in vivo, southern crabgrass (Digitaria ciliaris); details: AAH 320 g/ha
How it was run: as §3

windgrass [19] = test: Test Example 4: herbicidal effect by soil treatment (Table 19, symbol L); assay type: in vivo, windgrass (Apera spica-venti); details: AAH 320 g/ha
How it was run: as §3

Italian ryegrass [20] = test: Test Example 4: herbicidal effect by soil treatment (Table 19, symbol K); assay type: in vivo, Italian ryegrass (Lolium multiflorum); details: AAH 320 g/ha
How it was run: as §3

chickweed [21] = test: Test Example 4: herbicidal effect by soil treatment (Table 19, symbol P); assay type: in vivo, common chickweed (Stellaria media); details: AAH 320 g/ha
How it was run: as §3

green foxtail [22] = test: Test Example 5: herbicidal effect by foliage application, plastic box (Table 20, symbol G); assay type: in vivo, green foxtail (Setaria viridis); details: foliage application, AAH 320 g/ha, three weeks after application
How it was run: as §1

chickweed [23] = test: Test Example 5: herbicidal effect by foliage application, plastic box (Table 20, symbol P); assay type: in vivo, common chickweed (Stellaria media); details: foliage application, AAH 320 g/ha, three weeks after application
How it was run: as §1

barnyard grass [24] = test: Test Example 4: herbicidal effect by soil treatment (Table 19, symbol H); assay type: in vivo, barnyard grass (Echinochloa crus-galli); details: AAH 320 g/ha
How it was run: as §3

persian speedwell [25] = test: Test Example 5: herbicidal effect by foliage application, plastic box (Table 20, symbol R); assay type: in vivo, Persian speedwell (Veronica persica); details: foliage application, AAH 320 g/ha, three weeks after application
How it was run: as §1

SMILES | O: lambsquarters, herbicidal effect (lambsquarters [1]) | herbicidal effect on H (barnyard grass), rating 0-5 (barnyard grass [2]) | R: persian speedwell, herbicidal effect rating (persian speedwell [3]) | I: wild oat, herbicidal effect rating (wild oat [4]) | G: green foxtail, herbicidal effect rating (green foxtail [5]) | J: blackgrass, herbicidal effect (blackgrass [6]) | N: redroot pigweed, herbicidal effect (redroot pigweed [7]) | herbicidal effect on D (Chinese sprangletop), rating 0-5 (Chinese sprangletop) | herbicidal effect on E (rice flat sedge), rating 0-5 (rice flat sedge) | N: redroot pigweed, herbicidal effect rating (redroot pigweed [8]) | O: lambsquarters, herbicidal effect rating (lambsquarters [9]) | F: southern crabgrass, herbicidal effect (southern crabgrass [10]) | L: windgrass, herbicidal effect (windgrass [11]) | H: barnyard grass, herbicidal effect (barnyard grass [12]) | J: blackgrass, herbicidal effect rating (blackgrass [13]) | I: wild oat, herbicidal effect (wild oat [14]) | M: velvetleaf, herbicidal effect rating (velvetleaf [15]) | K: Italian ryegrass, herbicidal effect (Italian ryegrass [16]) | M: velvetleaf, herbicidal effect (velvetleaf [17]) | F: southern crabgrass, herbicidal effect rating (southern crabgrass [18]) | further results
CCCC(=O)Oc1c(OC)nn(C)c(=O)c1-c1c(-c2ccc(F)cc2OC)sc2ccccc12 [1-177] | 4 (Herbicidal rate of 70% or more and less than 90%) | 4 (Herbicidal rate of 70% or more and less than 90%) | 4 (Herbicidal rate of 70% or more and less than 90%) | 3 (Herbicidal rate of 40% or more and less than 70%) | 5 (Herbicidal rate of 90% or more (almost completely withered)) | 4 (Herbicidal rate of 70% or more and less than 90%) | 5 (Herbicidal rate of 90% or more (almost completely withered)) | 0 (Herbicidal rate of 5% or less (almost no effect)) | 4 (Herbicidal rate of 70% or more and less than 90%) | 5 (Herbicidal rate of 90% or more (almost completely withered)) | 2 (Herbicidal rate of 20% or more and less than 40%) | 3 (Herbicidal rate of 40% or more and less than 70%) | 4 (Herbicidal rate of 70% or more and less than 90%) | 4 (Herbicidal rate of 70% or more and less than 90%) | 0 (Herbicidal rate of 5% or less (almost no effect)) | 3 (Herbicidal rate of 40% or more and less than 70%) | 0 (Herbicidal rate of 5% or less (almost no effect)) | 1 (Herbicidal rate of 5% or more and less than 20%) | 4 (Herbicidal rate of 70% or more and less than 90%) | 3 (Herbicidal rate of 40% or more and less than 70%) | L: windgrass, herbicidal effect rating (windgrass [19]): 0 (Herbicidal rate of 5% or less (almost no effect)); K: Italian ryegrass, herbicidal effect rating (Italian ryegrass [20]): 0 (Herbicidal rate of 5% or less (almost no effect)); P: chickweed, herbicidal effect rating (chickweed [21]): 5 (Herbicidal rate of 90% or more (almost completely withered)); G: green foxtail, herbicidal effect (green foxtail [22]): 5 (Herbicidal rate of 90% or more (almost completely withered)); P: chickweed, herbicidal effect (chickweed [23]): 5 (Herbicidal rate of 90% or more (almost completely withered)); H: barnyard grass, herbicidal effect rating (barnyard grass [24]): 3 (Herbicidal rate of 40% or more and less than 70%); R: persian speedwell, herbicidal effect (persian speedwell [25]): 4 (Herbicidal rate of 70% or more and less than 90%)
COc1ccc(-c2sc3ccccc3c2-c2c(O)c(OC)nn(C)c2=O)c(OC)c1 [1-180] | 2 (Herbicidal rate of 20% or more and less than 40%) | 1 (Herbicidal rate of 5% or more and less than 20%) | 4 (Herbicidal rate of 70% or more and less than 90%) | 2 (Herbicidal rate of 20% or more and less than 40%) | 0 (Herbicidal rate of 5% or less (almost no effect)) | 3 (Herbicidal rate of 40% or more and less than 70%) | 3 (Herbicidal rate of 40% or more and less than 70%) | 0 (Herbicidal rate of 5% or less (almost no effect)) | 4 (Herbicidal rate of 70% or more and less than 90%) | 0 (Herbicidal rate of 5% or less (almost no effect)) | 0 (Herbicidal rate of 5% or less (almost no effect)) | 3 (Herbicidal rate of 40% or more and less than 70%) | 3 (Herbicidal rate of 40% or more and less than 70%) | 1 (Herbicidal rate of 5% or more and less than 20%) | 0 (Herbicidal rate of 5% or less (almost no effect)) | 3 (Herbicidal rate of 40% or more and less than 70%) | 0 (Herbicidal rate of 5% or less (almost no effect)) | 3 (Herbicidal rate of 40% or more and less than 70%) | 0 (Herbicidal rate of 5% or less (almost no effect)) | 0 (Herbicidal rate of 5% or less (almost no effect)) | L: windgrass, herbicidal effect rating (windgrass [19]): 0 (Herbicidal rate of 5% or less (almost no effect)); K: Italian ryegrass, herbicidal effect rating (Italian ryegrass [20]): 0 (Herbicidal rate of 5% or less (almost no effect)); P: chickweed, herbicidal effect rating (chickweed [21]): 4 (Herbicidal rate of 70% or more and less than 90%); G: green foxtail, herbicidal effect (green foxtail [22]): 5 (Herbicidal rate of 90% or more (almost completely withered)); P: chickweed, herbicidal effect (chickweed [23]): 5 (Herbicidal rate of 90% or more (almost completely withered)); H: barnyard grass, herbicidal effect rating (barnyard grass [24]): 0 (Herbicidal rate of 5% or less (almost no effect)); R: persian speedwell, herbicidal effect (persian speedwell [25]): 4 (Herbicidal rate of 70% or more and less than 90%)
